According to ChEMBL document CHEMBL1201862, “PubChem BioAssay data set” (2004):
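Protocol summary: plate cells (96-well), add compound at 5 concentrations, incubate 48 h, interpolate endpoints linearly. At the GI50, growth is halved.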 Calls of active or inactive are those of the source. No stated cut-off is given here; in the data, active = GI50 up to about 1.1 µM and inactive = higher.

Experiments:
Assay in all cases: growth of human tumour cells (NCI), 48 h
[1] = test system: SK-MEL-28
[2] = test system: SF-268
[3] = test system: SF-539
[4] = test system: SNB-75
[5] = test system: OVCAR-4
[6] = test system: KM12
[7] = test system: SF-295
[8] = test system: IGROV-1
[9] = test system: HL-60
[10] = test system: OVCAR-3
[11] = test system: NCI-H23
[12] = test system: RPMI-8226
[13] = test system: SN12C
[14] = test system: HCC 2998
[15] = test system: EKVX
[16] = test system: UO-31
[17] = test system: Malme-3M
[18] = test system: NCI-H522
[19] = test system: SK-OV-3
[20] = test system: K562

Row | Structure (SMILES) | GI50 [1] | GI50 [2] | GI50 [3] | GI50 [4] | GI50 [5] | GI50 [6] | GI50 [7] | GI50 [8] | GI50 [9] | GI50 [10] | GI50 [11] | GI50 [12] | GI50 [13] | GI50 [14] | GI50 [15] | GI50 [16] | GI50 [17] | GI50 [18] | GI50 [19] | GI50 [20]
1 | C#CCN(Cc1ccc2nc(-c3ccccc3)c(Cl)nc2c1)c1ccc(F)cc1 | > 100 µM (inactive) | > 100 µM (inactive) | > 100 µM (inactive) | > 100 µM (inactive) | 59.8 µM (inactive) | > 100 µM (inactive) | > 100 µM (inactive) | > 100 µM (inactive) | 15.1 µM (inactive) | > 100 µM (inactive) | 71.6 µM (inactive) | 39.7 µM (inactive) | > 100 µM (inactive) | > 100 µM (inactive) | > 100 µM (inactive) | 80.7 µM (inactive) | > 100 µM (inactive) | 40.6 µM (inactive) |  | 
2 | CC(C)C(=O)Cc1ccc2ccccc2n1 | > 100 µM (inactive) | > 100 µM (inactive) |  | > 100 µM (inactive) | > 100 µM (inactive) | > 100 µM (inactive) | > 100 µM (inactive) | 73.5 µM (inactive) | > 100 µM (inactive) | > 100 µM (inactive) | > 100 µM (inactive) | 0.097 µM (active) | > 100 µM (inactive) | > 100 µM (inactive) | 83.4 µM (inactive) | > 100 µM (inactive) | > 100 µM (inactive) | 50.5 µM (inactive) | > 100 µM (inactive) | 
3 | O=C(Nc1ccc(Cl)c(Cl)c1)C(=O)C(C(=O)c1ccccc1F)C1OC(=O)c2ccccc21 (stereo not given) | 25.3 µM (inactive) | 23.7 µM (inactive) | 11.1 µM (inactive) | 18.6 µM (inactive) | 22.3 µM (inactive) | 20 µM (inactive) | 37.5 µM (inactive) | 27.4 µM (inactive) | 14.1 µM (inactive) |  | 28.6 µM (inactive) | 18.2 µM (inactive) | 19.2 µM (inactive) | 17.9 µM (inactive) | 22.4 µM (inactive) | 18.8 µM (inactive) |  | 12.6 µM (inactive) | 27.7 µM (inactive) | 22 µM (inactive)
4 | CC1CC(c2ccccc2)=Nc2ccccc2S1 (stereo not given) | > 100 µM (inactive) | > 100 µM (inactive) | > 100 µM (inactive) | > 100 µM (inactive) | > 100 µM (inactive) | > 100 µM (inactive) | > 100 µM (inactive) | > 100 µM (inactive) | 58.9 µM (inactive) |  | > 100 µM (inactive) | 68.5 µM (inactive) | > 100 µM (inactive) | > 100 µM (inactive) | 72.8 µM (inactive) | > 100 µM (inactive) |  | 41.9 µM (inactive) | > 100 µM (inactive) | 79.4 µM (inactive)
5 | O=C1C(Cl)C2(CC(/C=C/c3cccs3)=NN2c2cccc(S(=O)(=O)O)c2)N1c1nc2ccccc2s1 (stereo not given) | > 100 µM (inactive) | > 100 µM (inactive) | > 100 µM (inactive) | 49.9 µM (inactive) | 71.3 µM (inactive) | > 100 µM (inactive) |  | 21.1 µM (inactive) | 64.6 µM (inactive) |  | 27.8 µM (inactive) | 47 µM (inactive) | > 100 µM (inactive) | > 100 µM (inactive) | 24.2 µM (inactive) | 10.9 µM (inactive) | > 100 µM (inactive) | 18.2 µM (inactive) |  | 35.6 µM (inactive)
6 | COc1ccc2c(c1)OC(c1ccccc1O)CC2=O (stereo not given) | 48.2 µM (inactive) | 29.2 µM (inactive) | 45.9 µM (inactive) | 30.9 µM (inactive) | 47.3 µM (inactive) | 27.5 µM (inactive) | 45.7 µM (inactive) |  |  | 28.1 µM (inactive) | 28.7 µM (inactive) | 23.9 µM (inactive) | 41.5 µM (inactive) | 48.9 µM (inactive) | 96.8 µM (inactive) | 18.1 µM (inactive) | 47.3 µM (inactive) | 27.9 µM (inactive) |  | 28.3 µM (inactive)
7 | COc1ccc(-c2cs/c(=N\c3ccccc3)n2CCCN(C)C)cc1 | 18.2 µM (inactive) | 24.3 µM (inactive) | 13.6 µM (inactive) | 4.44 µM (inactive) | 23.3 µM (inactive) | 15 µM (inactive) | 13 µM (inactive) |  | 5.58 µM (inactive) | 17.1 µM (inactive) | 23.1 µM (inactive) | 24.5 µM (inactive) | 33.7 µM (inactive) | 16.3 µM (inactive) |  | 12.4 µM (inactive) |  |  | 15.6 µM (inactive) | 
8 | Cc1cc(C)nc(NS(=O)(=O)c2ccc(NC(=O)c3cccc4c(Nc5ccc(S(=O)(=O)Nc6cc(C)on6)cc5)c5ccccc5nc34)cc2)n1 | 20.7 µM (inactive) | 19.7 µM (inactive) | 17.1 µM (inactive) | 23.3 µM (inactive) | 23.2 µM (inactive) | 16.4 µM (inactive) |  |  | 26.5 µM (inactive) | 19.9 µM (inactive) | 18.3 µM (inactive) |  | 23 µM (inactive) | 14.8 µM (inactive) | 24.9 µM (inactive) | 35 µM (inactive) | 18 µM (inactive) | 16.3 µM (inactive) | 27.9 µM (inactive) | 28.7 µM (inactive)
9 | COc1nc(N=P(c2ccccc2)(c2ccccc2)c2ccccc2)cc(=O)n1C | > 100 µM (inactive) | > 100 µM (inactive) | > 100 µM (inactive) | 54.8 µM (inactive) | > 100 µM (inactive) | > 100 µM (inactive) | > 100 µM (inactive) | > 100 µM (inactive) | > 100 µM (inactive) | > 100 µM (inactive) | > 100 µM (inactive) | > 100 µM (inactive) | > 100 µM (inactive) | > 100 µM (inactive) | > 100 µM (inactive) | > 100 µM (inactive) |  | > 100 µM (inactive) | > 100 µM (inactive) | > 100 µM (inactive)
10 | CCN(CC)CCO[Si](OCCN(CC)CC)(OCCN(CC)CC)OCCN(CC)CC | > 100 µM (inactive) |  | > 100 µM (inactive) | > 100 µM (inactive) | > 100 µM (inactive) | > 100 µM (inactive) | > 100 µM (inactive) | > 100 µM (inactive) |  | > 100 µM (inactive) | > 100 µM (inactive) |  | > 100 µM (inactive) | > 100 µM (inactive) | > 100 µM (inactive) | > 100 µM (inactive) | > 100 µM (inactive) |  | > 100 µM (inactive) | 
11 | CCCCCCCc1cscc1-c1cscc1Br | 88.9 µM (inactive) | > 100 µM (inactive) | > 100 µM (inactive) | 25.8 µM (inactive) | 33.7 µM (inactive) | 27.2 µM (inactive) | 26 µM (inactive) | 59.7 µM (inactive) |  |  | 40.8 µM (inactive) | 18.5 µM (inactive) | 69.5 µM (inactive) | 27.7 µM (inactive) | 56.1 µM (inactive) | 35.6 µM (inactive) | 42.1 µM (inactive) | 21.4 µM (inactive) | 45.9 µM (inactive) | 53.1 µM (inactive)
